IC50 data for 30 compounds are collected here from patent publication US12338237B2, “Derivatives having 1,2,3,4-tetrahydronaphthalene moiety or pharmaceutically acceptable salt thereof and pharmaceutical compositions comprising the same” (YUHAN CORPORATION, priority 2019, dated 2025).

The structures appear in SMILES notation.

Assay [1] deals with GM1 production. Description: cells. The assay is classed as cell-based. The following applies: Homo sapiens, Jurkat, 72 h.
In assay [2] the target is glucosylceramide synthase (GCS) (Homo sapiens (Human), UniProt Q16739). Description: Evaluation of inhibitory activities against GCS (enzyme reaction with A549 cell lysate, NBD C6-ceramide, HPLC fluorescence). The assay is classed as biochemical. The following applies: GCS activity in A549 cell lysate, 37° C. for 90 minutes. In outline: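 Lysate of A549 cells in 50 mM HEPES pH 7.3 incubated with test compound and NBD C6-ceramide at 37 °C for 90 min; lipids extracted with chloroform/methanol and GlcCer and ceramide peaks quantified by HPLC fluorescence. Activity from GlcCer area fraction, normalised between DMSO and ibiglustat controls.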
Sequence of glucosylceramide synthase (GCS) (Q16739 whole entry, looked up): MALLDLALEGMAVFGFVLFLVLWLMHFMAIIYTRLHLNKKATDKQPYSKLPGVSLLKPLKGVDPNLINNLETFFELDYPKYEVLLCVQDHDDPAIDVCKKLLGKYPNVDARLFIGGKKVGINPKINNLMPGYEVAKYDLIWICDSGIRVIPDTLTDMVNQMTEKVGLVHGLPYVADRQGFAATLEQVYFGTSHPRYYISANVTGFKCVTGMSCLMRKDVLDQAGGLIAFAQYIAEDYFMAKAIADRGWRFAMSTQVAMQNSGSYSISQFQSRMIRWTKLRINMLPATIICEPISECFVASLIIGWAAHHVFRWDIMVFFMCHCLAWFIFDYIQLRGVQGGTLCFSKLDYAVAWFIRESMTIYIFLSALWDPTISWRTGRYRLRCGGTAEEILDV

The IC50 is the concentration that inhibits the measured activity by half. Consider `O=C(NC1CCCc2ccc(-c3cc(F)cc(F)c3)cc21)O[C@@H]1CN2CCC1CC2` (stereo partly drawn) [Example 68, (S)-quinuclidin-3-yl (7-(3,5-difluorophenyl)-1,2,3,4-tetrahydronaphthalen-1-yl)carbamate], for which the IC50 in assay [1] was found to be 276 nM; in assay [2], 63.5 nM.

On to `O=C(NC1CCCc2ccc(-c3ccc(F)c(F)c3F)cc21)O[C@@H]1CN2CCC1CC2` (stereo partly drawn) [Example 69, (S)-quinuclidin-3-yl (7-(2,3,4-trifluorophenyl)-1,2,3,4-tetrahydronaphthalen-1-yl)carbamate], for which the IC50 in assay [1] amounted to 220 nM; in assay [2], 40.5 nM.

On to `O=C(NC1CCCc2ccc(-c3ccc(Cl)c(Cl)c3)cc21)O[C@@H]1CN2CCC1CC2` (stereo partly drawn) [Example 70, (S)-quinuclidin-3-yl (7-(3,4-dichlorophenyl)-1,2,3,4-tetrahydronaphthalen-1-yl)carbamate], for which the IC50 was 133 nM in assay [1] and 83.9 nM in assay [2].

Regarding `O=C(NC1CCCc2ccc(-c3cc(Cl)ccc3Cl)cc21)O[C@@H]1CN2CCC1CC2` (stereo partly drawn) [Example 71, (S)-quinuclidin-3-yl (7-(2,5-dichlorophenyl)-1,2,3,4-tetrahydronaphthalen-1-yl)carbamate], the IC50 in assay [1] stood at 95.4 nM; in assay [2] it was 22.8 nM.

Take `O=C(NC1CCCc2ccc(-c3ccncc3)cc21)O[C@@H]1CN2CCC1CC2` (stereo partly drawn) [Example 72, (S)-quinuclidin-3-yl (7-(pyridin-4-yl)-1,2,3,4-tetrahydronaphthalen-1-yl)carbamate]: the IC50 in assay [1] is 116 nM; in assay [2] it was 66 nM.

On to `O=C(NC1CCCc2ccc(-c3cccnc3)cc21)O[C@@H]1CN2CCC1CC2` (stereo partly drawn) [Example 73, (S)-quinuclidin-3-yl (7-(pyridin-3-yl)-1,2,3,4-tetrahydronaphthalen-1-yl)carbamate], for which the values for the IC50 in assay [1] and in assay [2] were 587 nM and 359 nM, respectively.

With `Cc1ccccc1-c1ccc2c(c1)C(NC(=O)O[C@@H]1CN3CCC1CC3)CCC2` (stereo partly drawn) [Example 74, (S)-quinuclidin-3-yl (7-(o-tolyl)-1,2,3,4-tetrahydronaphthalen-1-yl)carbamate], the values for the IC50 in assay [1] and in assay [2] were 54.4 nM and 14.4 nM, respectively.

`COc1ccccc1-c1ccc2c(c1)C(NC(=O)O[C@@H]1CN3CCC1CC3)CCC2` (stereo partly drawn) [Example 75, (S)-quinuclidin-3-yl (7-(2-methoxyphenyl)-1,2,3,4-tetrahydronaphthalen-1-yl)carbamate]: the values for the IC50 in assay [1] and in assay [2] were 138 nM and 22.7 nM, respectively.

For the compound `CCOc1ccccc1-c1ccc2c(c1)C(NC(=O)O[C@@H]1CN3CCC1CC3)CCC2` (stereo partly drawn) [Example 76, (S)-quinuclidin-3-yl (7-(2-ethoxyphenyl)-1,2,3,4-tetrahydronaphthalen-1-yl)carbamate], the IC50 came out at 156 nM in assay [1] and 18.7 nM in assay [2].

Regarding `COc1cccc(-c2ccc3c(c2)C(NC(=O)O[C@@H]2CN4CCC2CC4)CCC3)c1` (stereo partly drawn) [Example 77, (S)-quinuclidin-3-yl (7-(3-methoxyphenyl)-1,2,3,4-tetrahydronaphthalen-1-yl)carbamate], the figures for the IC50 in assay [1] and in assay [2] were 197 nM and 74.9 nM, respectively.

On to `CC(C)Oc1ccccc1-c1ccc2c(c1)C(NC(=O)O[C@@H]1CN3CCC1CC3)CCC2` (stereo partly drawn) [Example 78, (S)-quinuclidin-3-yl (7-(2-isopropoxyphenyl)-1,2,3,4-tetrahydronaphthalen-1-yl)carbamate], for which the IC50 in assay [1] was 230 nM; in assay [2], 30.1 nM.

Regarding `COCCOc1ccc(-c2ccc3c(c2)C(NC(=O)O[C@@H]2CN4CCC2CC4)CCC3)cc1` (stereo partly drawn) [Example 79, (S)-quinuclidin-3-yl (7-(4-(2-methoxyethoxy)phenyl)-1,2,3,4-tetrahydronaphthalen-1-yl)carbamate], the values for the IC50 in assay [1] and in assay [2] were 65.3 nM and 12.9 nM, respectively.

In the case of `COc1ccc(-c2ccc3c(c2)C(NC(=O)O[C@@H]2CN4CCC2CC4)CCC3)cc1` (stereo partly drawn) [Example 80, (S)-quinuclidin-3-yl (7-(4-methoxyphenyl)-1,2,3,4-tetrahydronaphthalen-1-yl)carbamate], the IC50 amounted to 225 nM in assay [1] and 15.4 nM in assay [2].

For the compound `CCOc1ccc(-c2ccc3c(c2)C(NC(=O)O[C@@H]2CN4CCC2CC4)CCC3)cc1` (stereo partly drawn) [Example 81, (S)-quinuclidin-3-yl (7-(4-ethoxyphenyl)-1,2,3,4-tetrahydronaphthalen-1-yl)carbamate], the IC50 is 410 nM in assay [1] and 63.3 nM in assay [2].

On to `CCCOc1ccc(-c2ccc3c(c2)C(NC(=O)O[C@@H]2CN4CCC2CC4)CCC3)cc1` (stereo partly drawn) [Example 82, (S)-quinuclidin-3-yl (7-(4-propoxyphenyl)-1,2,3,4-tetrahydronaphthalen-1-yl)carbamate], for which the figures for the IC50 in assay [1] and in assay [2] were 14.4 nM and 30.3 nM, respectively.

As for `CC(C)Oc1ccc(-c2ccc3c(c2)C(NC(=O)O[C@@H]2CN4CCC2CC4)CCC3)cc1` (stereo partly drawn) [Example 83, (S)-quinuclidin-3-yl (7-(4-isopropoxyphenyl)-1,2,3,4-tetrahydronaphthalen-1-yl)carbamate], the IC50 was 386 nM in assay [1] and 39.1 nM in assay [2].

Take `O=C(NC1CCCc2ccc(-c3ccc4c(c3)OCO4)cc21)O[C@@H]1CN2CCC1CC2` (stereo partly drawn) [Example 84, (S)-quinuclidin-3-yl (7-(benzo[d]dioxol-5-yl)-1,2,3,4-tetrahydronaphthalen-1-yl)carbamate]: the IC50 in assay [1] turned out to be 144 nM; in assay [2], 75.6 nM.

With `Cc1cccc(-c2ccc3c(c2)C(NC(=O)O[C@@H]2CN4CCC2CC4)CCC3)c1` (stereo partly drawn) [Example 85, (S)-quinuclidin-3-yl (7-(m-tolyl)-1,2,3,4-tetrahydronaphthalen-1-yl)carbamate], the IC50 amounted to 192 nM in assay [1] and 74.3 nM in assay [2].

Regarding `CC1(C)CCc2cc(-c3ccc(F)cc3)ccc2C1NC(=O)O[C@@H]1CN2CCC1CC2` (stereo partly drawn) [Example 86, (S)-quinuclidin-3-yl (6-(4-fluorophenyl)-2,2-dimethyl-1,2,3,4-tetrahydronaphthalen-1-yl)carbamate], the IC50 in assay [1] was 14.2 nM; in assay [2] it was 2.6 nM.

Consider `CC1(C)CCc2cc(-c3ccc(Cl)cc3)ccc2C1NC(=O)O[C@@H]1CN2CCC1CC2` (stereo partly drawn) [Example 87, (S)-quinuclidin-3-yl (6-(4-chlorophenyl)-2,2-dimethyl-1,2,3,4-tetrahydronaphthalen-1-yl)carbamate], for which the IC50 was 19.5 nM in assay [1] and 6 nM in assay [2].

As for `CC1(C)CCc2cc(-c3ccc(C(F)(F)F)cc3)ccc2C1NC(=O)O[C@@H]1CN2CCC1CC2` (stereo partly drawn) [Example 88, (S)-quinuclidin-3-yl (2,2-dimethyl-6-(4-(trifluoromethyl)phenyl)-1,2,3,4-tetrahydronaphthalen-1-yl)carbamate], the IC50 stood at 11.3 nM in assay [1] and 3.5 nM in assay [2].

`CC1(C)CCc2cc(-c3ccc(OC(F)(F)F)cc3)ccc2C1NC(=O)O[C@@H]1CN2CCC1CC2` (stereo partly drawn) [Example 89, (S)-quinuclidin-3-yl (2,2-dimethyl-6-(4-(trifluoromethoxy)phenyl)-1,2,3,4-tetrahydronaphthalen-1-yl)carbamate]: the IC50 in assay [1] was 7.79 nM; in assay [2], 2.2 nM.

As for `CC1(C)CCc2cc(-c3cccc(F)c3)ccc2C1NC(=O)O[C@@H]1CN2CCC1CC2` (stereo partly drawn) [Example 90, (S)-quinuclidin-3-yl (6-(3-fluorophenyl)-2,2-dimethyl-1,2,3,4-tetrahydronaphthalen-1-yl)carbamate], the results for the concentration for half-maximal inhibition (IC50) in assay [1] and in assay [2] were 4.89 nM and 1.01 nM, respectively.

Take `CC1(C)CCc2cc(-c3cccc(Cl)c3)ccc2C1NC(=O)O[C@@H]1CN2CCC1CC2` (stereo partly drawn) [Example 91, (S)-quinuclidin-3-yl (6-(3-chlorophenyl)-2,2-dimethyl-1,2,3,4-tetrahydronaphthalen-1-yl)carbamate]: the IC50 was found to be 2.86 nM in assay [1] and 0.81 nM in assay [2].

For `CC1(C)CCc2cc(-c3cccc(C(F)(F)F)c3)ccc2C1NC(=O)O[C@@H]1CN2CCC1CC2` (stereo partly drawn) [Example 92, (S)-quinuclidin-3-yl (2,2-dimethyl-6-(3-(trifluoromethyl)phenyl)-1,2,3,4-tetrahydronaphthalen-1-yl)carbamate], the IC50 is 2.72 nM in assay [1] and 1.04 nM in assay [2].

With `CC1(C)CCc2cc(-c3cccc(OC(F)(F)F)c3)ccc2C1NC(=O)O[C@@H]1CN2CCC1CC2` (stereo partly drawn) [Example 93, (S)-quinuclidin-3-yl (2,2-dimethyl-6-(3-(trifluoromethoxy)phenyl)-1,2,3,4-tetrahydronaphthalen-1-yl)carbamate], the IC50 in assay [1] was 0.388 nM; in assay [2], 1.76 nM.

In the case of `CC1(C)CCc2cc(-c3ccccc3F)ccc2C1NC(=O)O[C@@H]1CN2CCC1CC2` (stereo partly drawn) [Example 94, (S)-quinuclidin-3-yl (6-(2-fluorophenyl)-2,2-dimethyl-1,2,3,4-tetrahydronaphthalen-1-yl)carbamate], the IC50 stood at 3.1 nM in assay [1] and 0.97 nM in assay [2].

With `CC1(C)CCc2cc(-c3ccccc3Cl)ccc2C1NC(=O)O[C@@H]1CN2CCC1CC2` (stereo partly drawn) [Example 95, (S)-quinuclidin-3-yl (6-(2-chlorophenyl)-2,2-dimethyl-1,2,3,4-tetrahydronaphthalen-1-yl)carbamate], the IC50 in assay [1] was 0.123 nM; in assay [2], 0.85 nM.

For `CC1(C)CCc2cc(-c3ccccc3C(F)(F)F)ccc2C1NC(=O)O[C@@H]1CN2CCC1CC2` (stereo partly drawn) [Example 96, (S)-quinuclidin-3-yl (2,2-dimethyl-6-(2-(trifluoromethyl)phenyl)-1,2,3,4-tetrahydronaphthalen-1-yl)carbamate], the IC50 in assay [1] is 3.29 nM; in assay [2], 1.79 nM.

Turning to `CC1(C)CCc2cc(-c3ccccc3OC(F)(F)F)ccc2C1NC(=O)O[C@@H]1CN2CCC1CC2` (stereo partly drawn) [Example 97, (S)-quinuclidin-3-yl (2,2-dimethyl-6-(2-(trifluoromethoxy)phenyl)-1,2,3,4-tetrahydronaphthalen-1-yl)carbamate], the figures for the IC50 in assay [1] and in assay [2] were 1.39 nM and 0.86 nM, respectively.
